Results published in patent US10294202B2, “Pyrrolidinones as herbicides” (FMC Corporation, priority 2013, dated 2019).

Key:
deadnettle = experiment: Test D pre-/postemergence herbicide test; format: in vivo, Lamium amplexicaule; conditions: Preemergence; for Plant response rating, Deadnettle: scale 0 to 100 (0 no effect, 100 complete control)
Excerpt: (§1) Seeds of plant species selected from bluegrass (annual bluegrass, Poa annua), blackgrass (Alopecurus myosuroides), canarygrass (littleseed canarygrass, Phalaris minor), chickweed (common chickweed, Stellaria media), galium (catchweed bedstraw, Galium aparine), bromegrass, downy (downy bromegrass, Bromus tectorum), field poppy (Papaver rhoeas), field violet (Viola arvensis), foxtail, green (green foxtail, Setaria viridis), deadnettle (henbit deadnettle, Lamium amplexicaule), ryegrass, Italian (Italian ryegrass, Lolium multiflorum), kochia (Kochia scoparia), lambsquarters (Chenopodium album), oilseed rape (Brassica napus), pigweed (Amaranthus retroflexus), chamomile (scentless chamomile, Matricaria inodora), Russian thistle (Salsola kali), speedwell (bird's-eye speedwell, Veronica persica), barley, spring (spring barley, Hordeum vulgare), wheat, spring (spring wheat, Triticum aestivum), buckwheat, wild (wild buckwheat, Polygonum convolvulus), mustard, wild (wild mustard, Sinapis arvensis), oat, wild (wild oat, Avena fatua), radish, wild (wild radish, Raphanus raphanistrum), […]), barley, winter (winter barley, Hordeum vulgare), and wheat, winter (winter wheat, Triticum aestivum) were planted into a silt loam soil and treated preemergence with test chemicals formulated in a non-phytotoxic solvent mixture which included a surfactant. At the same time, these species were planted in pots containing Redi-Earth® planting medium (Scotts Company, 14111 Scottslawn Road, Marysville, Ohio 43041) comprising spaghnum peat moss, vermiculite, wetting agent and starter nutrients and treated with postemergence applications of the test chemicals formulated in the same manner. Plants ranged in height from 2 to 18 cm (1- to 4-leaf stage). Treated plants and controls were maintained in a controlled growth environment for 7 to 21 days after which time all species were compared to controls and visually evaluated. Plant response ratings, summarized in Table D, are based on a scale of 0 to 100 where 0 is no effect and 100 is complete control. A dash (-) response means no test result.

foxtail, green = experiment: Test D pre-/postemergence herbicide test; format: in vivo, Setaria viridis; conditions: Preemergence; for Plant response rating, Foxtail, Green: scale 0 to 100 (0 no effect, 100 complete control)
Excerpt: as §1

sprangletop, Brdd. = experiment: Test F flood (paddy) test; format: in vivo, Leptochloa fascicularis; conditions: 21 d, scale 0-100
In short: (§2)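 Greenhouse paddy, 30/27 °C day/night, 16-h light; sterilized Tama silt loam, 2.6% OM. Plants at 2.0–2.5 leaves; flood 3 cm, compound added directly to water. Visual score at 21 d, 0 = no effect, 100 = complete control, relative to untreated.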

mustard, wild = experiment: Test D pre-/postemergence herbicide test; format: in vivo, Sinapis arvensis; conditions: Preemergence; for Plant response rating, Mustard, Wild: scale 0 to 100 (0 no effect, 100 complete control)
Excerpt: as §1

oilseed rape = experiment: Test D pre-/postemergence herbicide test; format: in vivo, Brassica napus; conditions: Preemergence, scale 0 to 100 (0 no effect, 100 complete control)
In short: (§3)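 Seeds sown in silt loam were sprayed preemergence with test chemicals in a non-phytotoxic solvent mixture with surfactant. Postemergence plants grown in peat/vermiculite medium were treated at 2–18 cm (1- to 4-leaf stage). After 7 to 21 days in a controlled environment, injury was rated visually versus controls, 0 (no effect) to 100 (complete control).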

windgrass = experiment: Test D pre-/postemergence herbicide test; format: in vivo, Apera spica-venti; conditions: Preemergence, scale 0 to 100 (0 no effect, 100 complete control)
In short: as §3

watergrass, late = experiment: Test F flood (paddy) test; format: in vivo, Echinochloa oryzicola; conditions: 21 d, scale 0-100
In short: as §2

## O=C1NCC(c2cccc(C(F)(F)F)c2)C1C(=O)Nc1ccc(F)cc1F (racemic) [Compound 207]
deadnettle; 31 g ai/ha
  Plant response rating, Deadnettle: 0
deadnettle; 62 g ai/ha
  Plant response rating, Deadnettle: 0
deadnettle; 125 g ai/ha
  Plant response rating, Deadnettle: 20
deadnettle; 250 g ai/ha, Deadnettle, scale 0 to 100
  Plant response rating: 20
foxtail, green; 31 g ai/ha
  Plant response rating, Foxtail, Green: 15
foxtail, green; 62 g ai/ha
  Plant response rating, Foxtail, Green: 60
foxtail, green; 125 g ai/ha
  Plant response rating, Foxtail, Green: 75
foxtail, green; 250 g ai/ha, Foxtail, Green, scale 0 to 100
  Plant response rating: 90
sprangletop, Brdd.; 125 g ai/ha
  Plant response rating, Sprangletop, Brdd.: 100
sprangletop, Brdd.; 250 g ai/ha
  Plant response rating, Sprangletop, Brdd.: 100
sprangletop, Brdd.; 500 g ai/ha
  Plant response rating, Sprangletop, Brdd.: 100
mustard, wild; 31 g ai/ha
  Plant response rating, Mustard, Wild: 10
mustard, wild; 62 g ai/ha
  Plant response rating, Mustard, Wild: 25
mustard, wild; 125 g ai/ha
  Plant response rating, Mustard, Wild: 25
mustard, wild; 250 g ai/ha, Mustard, Wild, scale 0 to 100
  Plant response rating: 30
Oilseed rape; 31 g ai/ha
  Plant response rating, Oilseed Rape: 0
Oilseed rape; 62 g ai/ha
  Plant response rating, Oilseed Rape: 0
Oilseed rape; 125 g ai/ha
  Plant response rating, Oilseed Rape: 0
Oilseed rape; 250 g ai/ha
  Plant response rating, Oilseed Rape: 0
windgrass; 31 g ai/ha
  Plant response rating, Windgrass: 5
windgrass; 62 g ai/ha
  Plant response rating, Windgrass: 20
windgrass; 125 g ai/ha
  Plant response rating, Windgrass: 20
windgrass; 250 g ai/ha
  Plant response rating, Windgrass: 65
watergrass, late; 125 g ai/ha
  Plant response rating, Watergrass, Late: 65
watergrass, late; 250 g ai/ha
  Plant response rating, Watergrass, Late: 85
watergrass, late; 500 g ai/ha
  Plant response rating, Watergrass, Late: 90

## CN1CC(c2ccc(F)cc2)C(C(=O)Nc2cccc(F)c2F)C1=O (stereo not shown) [Compound 271]
sprangletop, Brdd.; 64 g ai/ha
  Plant response rating, Sprangletop, Brdd.: 20
sprangletop, Brdd.; 125 g ai/ha
  Plant response rating, Sprangletop, Brdd.: 30
sprangletop, Brdd.; 250 g ai/ha
  Plant response rating, Sprangletop, Brdd.: 80
sprangletop, Brdd.; 500 g ai/ha
  Plant response rating, Sprangletop, Brdd.: 95
watergrass, late; 64 g ai/ha
  Plant response rating, Watergrass, Late: 45
watergrass, late; 125 g ai/ha
  Plant response rating, Watergrass, Late: 75
watergrass, late; 250 g ai/ha
  Plant response rating, Watergrass, Late: 100
watergrass, late; 500 g ai/ha
  Plant response rating, Watergrass, Late: 100
